Assay results from ChEMBL document CHEMBL5674881, “The therapeutic properties of resminostat for hepatocellular carcinoma” (2018).
Activity calls are given as the source filed them. The calls are words filed in the database; no cut-off is given here.

System: Hep 3B2
Experiment: Anti-proliferative activity against human Hep3B cells assessed as increase in p27 mRNA expression at 80 nM incubated for 24 hrs in presence of SGBS CM by qRT-PCR analysis
Assay type: functional, cell-based

With `CN(C)Cc1ccc(S(=O)(=O)n2ccc(/C=C/C(=O)NO)c2)cc1` [RESMINOSTAT] the Activity was “Active”.
